Reference: ChEMBL document CHEMBL1128118, “Synthesis of biologically active 2-benzoyl paclitaxel analogues” (1995)

Assays:
[1] = molecular target: Tubulin (Bos taurus) (UniProt Q6B856+Q862L2+Q862F3); experiment: Ratio of ED50 for microtubule polymerization to ED50 for paclitaxel; Relative paclitaxel ED50 = 1.0; format: functional
[2] = test system: B16; experiment: Ratio of ED50 of compound for B16 melanoma cytotoxicity to that of ED50 of paclitaxel; Relative paclitaxel ED50 = 1.0; format: functional, Mus musculus
[3] = test system: P388; experiment: Compound was tested for in vitro cytotoxicity against P388 cells; format: functional, Mus musculus

| SMILES | Ratio [1] | Ratio [2] | Activity [3] |
| --- | --- | --- | --- |
| CC(=O)O[C@H]1C(=O)[C@]2(C)[C@@H](O)CC3OC[C@@]3(OC(C)=O)[C@H]2[C@H](OC(=O)c2cccc(C)c2)[C@]2(O)C[C@H](OC(=O)[C@H](O)[C@@H](NC(=O)c3ccccc3)c3ccccc3)C(C)=C1C2(C)C (some centres not stated) | 1.7 | 1.6 |  |
| CC(=O)O[C@H]1C(=O)[C@]2(C)[C@@H](O)CC3OC[C@@]3(OC(C)=O)[C@H]2[C@H](OC(=O)c2ccc(Cl)cc2)[C@]2(O)C[C@H](OC(=O)[C@H](O)[C@@H](NC(=O)c3ccccc3)c3ccccc3)C(C)=C1C2(C)C (some centres not stated) | 0.79 | 3.1 |  |
| CC(=O)O[C@H]1C(=O)[C@]2(C)[C@@H](O)CC3OC[C@@]3(OC(C)=O)[C@H]2[C@H](OC(=O)c2ccc(Cl)c(Cl)c2)[C@]2(O)C[C@H](OC(=O)[C@H](O)[C@@H](NC(=O)c3ccccc3)c3ccccc3)C(C)=C1C2(C)C (some centres not stated) | 0.45 | 2.7 |  |
| CC(=O)O[C@H]1C(=O)[C@]2(C)[C@@H](O)CC3OC[C@@]3(OC(C)=O)[C@H]2[C@H](OC(=O)c2cccc([N+](=O)[O-])c2)[C@]2(O)C[C@H](OC(=O)[C@H](O)[C@@H](NC(=O)c3ccccc3)c3ccccc3)C(C)=C1C2(C)C (some centres not stated) | 1.3 | 0.73 |  |
| CC(=O)O[C@H]1C(=O)[C@]2(C)[C@@H](O)CC3OC[C@@]3(OC(C)=O)[C@H]2[C@H](OC(=O)c2ccc([N+](=O)[O-])cc2)[C@]2(O)C[C@H](OC(=O)[C@H](O)[C@@H](NC(=O)c3ccccc3)c3ccccc3)C(C)=C1C2(C)C (some centres not stated) | > 8.8 |  |  |
| CC(=O)O[C@H]1C(=O)[C@]2(C)[C@@H](O)CC3OC[C@@]3(OC(C)=O)[C@H]2[C@H](OC(=O)c2cccc(C(F)(F)F)c2)[C@]2(O)C[C@H](OC(=O)[C@H](O)[C@@H](NC(=O)c3ccccc3)c3ccccc3)C(C)=C1C2(C)C (some centres not stated) | 0.64 | 2.7 |  |

Now from value to compound, other results behind:

| Ratio [1] | SMILES | Ratio [2] | Activity [3] |
| --- | --- | --- | --- |
| 3.2 | CC(=O)O[C@H]1C(=O)[C@]2(C)[C@@H](O)CC3OC[C@@]3(OC(C)=O)[C@H]2[C@H](OC(=O)c2ccc(F)cc2)[C@]2(O)C[C@H](OC(=O)[C@H](O)[C@@H](NC(=O)c3ccccc3)c3ccccc3)C(C)=C1C2(C)C (some centres not stated) | >36 |  |
| 1.6 | CC(=O)O[C@H]1C(=O)[C@]2(C)[C@@H](O)CC3OC[C@@]3(OC(C)=O)[C@H]2[C@H](OC(=O)c2ccc(C)cc2)[C@]2(O)C[C@H](OC(=O)[C@H](O)[C@@H](NC(=O)c3ccccc3)c3ccccc3)C(C)=C1C2(C)C (some centres not stated) | 5.1 |  |
| 1.1 | CC(=O)O[C@H]1C(=O)[C@]2(C)[C@@H](O)CC3OC[C@@]3(OC(C)=O)[C@H]2[C@H](OC(=O)c2cccc(Cl)c2)[C@]2(O)C[C@H](OC(=O)[C@H](O)[C@@H](NC(=O)c3ccccc3)c3ccccc3)C(C)=C1C2(C)C (some centres not stated) | 0.57 | 0.81 |
| 1 | CC(=O)O[C@H]1C(=O)[C@@]2(C)[C@H]([C@H](OC(=O)c3ccccc3)[C@]3(O)C[C@H](OC(=O)[C@H](O)[C@@H](NC(=O)c4ccccc4)c4ccccc4)C(C)=C1C3(C)C)[C@]1(OC(C)=O)CO[C@@H]1C[C@@H]2O [PACLITAXEL] | 1 | 1 |
| 6 | COc1ccc(C(=O)O[C@H]2[C@H]3[C@](C)(C(=O)[C@H](OC(C)=O)C4=C(C)[C@@H](OC(=O)[C@H](O)[C@@H](NC(=O)c5ccccc5)c5ccccc5)C[C@]2(O)C4(C)C)[C@@H](O)CC2OC[C@]23OC(C)=O)cc1 (some centres not stated) | 22 |  |
| 0.98 | CC(=O)O[C@H]1C(=O)[C@]2(C)[C@@H](O)CC3OC[C@@]3(OC(C)=O)[C@H]2[C@H](OC(=O)c2cc(Cl)cc(Cl)c2)[C@]2(O)C[C@H](OC(=O)[C@H](O)[C@@H](NC(=O)c3ccccc3)c3ccccc3)C(C)=C1C2(C)C (some centres not stated) | 1.8 |  |
| 1.1 | CC(=O)O[C@H]1C(=O)[C@]2(C)[C@@H](O)CC3OC[C@@]3(OC(C)=O)[C@H]2[C@H](OC(=O)c2ccccc2C)[C@]2(O)C[C@H](OC(=O)[C@H](O)[C@@H](NC(=O)c3ccccc3)c3ccccc3)C(C)=C1C2(C)C (some centres not stated) | 0.84 |  |
